Data published in patent US20070185078A1, “Substituted triazole derivatives as oxytocin antagonists” (priority 2004, published 2007).

Molecular target: T1, Oxytocin Receptor (CHO-OTR/NFAT-β-Lactamase cells) (Homo sapiens, UniProt P30559)
T1 construct: expressed in transfected cells; host or cells: CHO (CHO-OTR cell line further transfected with the NFAT-β-lactamase reporter)
T1 sequence (P30559 1-389): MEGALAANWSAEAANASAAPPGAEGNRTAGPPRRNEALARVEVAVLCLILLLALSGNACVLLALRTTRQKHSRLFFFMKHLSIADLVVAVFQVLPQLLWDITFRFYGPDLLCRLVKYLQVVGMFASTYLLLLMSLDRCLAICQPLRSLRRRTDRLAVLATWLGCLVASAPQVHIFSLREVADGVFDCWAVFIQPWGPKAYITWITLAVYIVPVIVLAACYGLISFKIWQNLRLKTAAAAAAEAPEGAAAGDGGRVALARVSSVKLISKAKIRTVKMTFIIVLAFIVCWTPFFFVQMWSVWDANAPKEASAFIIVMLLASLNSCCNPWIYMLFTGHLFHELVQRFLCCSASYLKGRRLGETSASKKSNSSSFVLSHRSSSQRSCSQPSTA
Assay: Oxytocin Receptor Beta-Lactamase Assay
Assay type: cell-based
Settings: oxytocin stimulation 4 hours, read-out: oxytocin antagonist activity, expressed as a Ki value
Method: A suitable assay for determining the oxytocin antagonist activity of a compound is detailed herein below.
Oxytocin Receptor Beta-Lactamase Assay
Cells used are CHO-OTR/NFAT-β-Lactamase. The NFAT-β-lactamase expression construct was transfected into the CHO-OTR cell line and clonal populations were isolated via fluorescence activated cell sorting (FACS). An appropriate clone was selected to develop the assay. […]
Cells grown at 80-90% confluence were harvested and counted. […]
Preparation of 1 ml of 6× Loading Buffer with Enhanced Loading Protocol (this requires scale-up according to number of plates to be screened) • 12 μl of solution A (1 mM CCF4-AM in Dry DMSO) was added to 60 μl of solution B (100 mg/ml Pluronic-F127 in DMSO+0.1% Acetic Acid) and vortexed. • The resulting solution was added to 925 μl of solution C (24% w/w PEG400, 18% TR40 v/v in water). • 75 μl of solution D was added (200 mM probenecid in 200 mM NaOH). • 10 μl of 6× Loading Buffer was added to all wells and incubated for 1.5 hrs-2 hrs at room temperature in the dark. • The plates were read using an LJL Analyst, Excitation 405 nm, Emission 450 nm and 530 nm, gain optimal, lagtime 0.40 μs integration, 4 flashes, bottom reading.

COC(=O)N1Cc2nc(OC)ccc2-n2c(nnc2-c2ccc(-c3ccccc3OC)cc2)C1 [Example 8]
Ki: 3 nM
